Test results taken from patent publication US8580825B2, “Oxadiazole inhibitors of leukotriene production” (Boehringer Ingelheim International GmbH, priority 2010, dated 2013).

How the values were obtained:
[1] = target: T1, recombinant human FLAP protein (Homo sapiens, UniProt P20292); assay: FLAP binding assay (Scintillation Proximity Assay, displacement of [125I]L-691,831); details: read-out: FLAP SPA IC50
T1 construct: made in house; host or cells: Sf9 insect cells (100,000xg membrane fraction used)
T1 sequence (P20292 1-161): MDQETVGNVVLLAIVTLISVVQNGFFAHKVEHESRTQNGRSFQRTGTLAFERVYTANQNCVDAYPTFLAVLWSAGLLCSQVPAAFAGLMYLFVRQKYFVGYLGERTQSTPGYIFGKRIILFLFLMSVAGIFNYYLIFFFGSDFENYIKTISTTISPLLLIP
How it was run: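 Scintillation proximity displacement of [125I]L-691,831 (0.08 nM) from membranes of sf9 cells expressing recombinant human FLAP (5 μg/well) on WGA SPA beads, pH 7.5 Tris buffer. Plates shaken 2 h before counting. Non-specific binding defined with 10 μM unlabelled L-691,831.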

[2] = test system: synthesis of LTB4 in human whole blood; assay: human whole blood LTB4 production inhibition assay; format: cell-based; details: calcimycin stimulated, read-out: hWB LTB4 IC50
How it was run: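 Heparinized human whole blood was preincubated with compound for 15 min at 37° C, then stimulated with calcimycin (20 μM final, in PBS pH 7.4) for a further 30 min at 37° C. Plasma LTB4 was quantified by antibody-based homogeneous time-resolved fluorescence.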

| IC50 [1] | IC50 [2] | SMILES |
| --- | --- | --- |
| 360 nM | 2300 nM | COCCn1cc(-c2nc([C@](C)(c3ccc(-c4ccc(N)nc4)nc3)C3CC3)no2)cn1 [Example 108, 5-((S)-1-Cyclopropyl-1-{5-[1-(2-methoxy-ethyl)-1H-pyrazol-4-yl]-[1,2,4]oxadiazol-3-yl}-ethyl)-[2,3′]bipyridinyl-6′-ylamine] |
| 350 nM | 1100 nM | CC(C)(O)Cn1cc(-c2nc([C@](C)(c3ccc(-c4ccc(N)nc4)nc3)C3CC3)no2)cn1 [Example 109, 1-(4-{3-[(S)-1-(6′-Amino-[2,3′]bipyridinyl-5-yl)-1-cyclopropyl-ethyl]-[1,2,4]oxadiazol-5-yl}-pyrazol-1-yl)-2-methyl-propan-2-ol] |
| 5.9 nM | 31 nM | CC(C)[C@](C)(c1ccc(-c2cnc(N)cn2)nc1)c1noc(-c2cnn(CC(C)(C)O)c2)n1 [Example 110, 1-[4-(3-{(R)-1-[6-(5-Amino-pyrazin-2-yl)-pyridin-3-yl]-1,2-dimethyl-propyl}-[1,2,4]oxadiazol-5-yl)-pyrazol-1-yl]-2-methyl-propan-2-ol] |
| 4.8 nM | 71 nM | CC(C)[C@](C)(c1ccc(-c2cnc(N)cn2)nc1)c1noc(-c2cnn(CC(=O)N(C)C)c2)n1 [Example 112, 2-[4-(3-{(R)-[6-(5-Amino-pyrazin-2-yl)-pyridin-3-yl]-1,2-dimethyl-propyl}-[1,2,4]oxadiazol-5-yl)-pyrazol-1-yl]-N,N-dimethyl-acetamide] |
| 4 nM | 12 nM | CC(C)[C@](C)(c1ccc(-c2cnc(N)cn2)nc1)c1noc(-c2cnn(C3COC3)c2)n1 [Example 113, 5-(5-{(R)-1,2-Dimethyl-1-[5-(1-oxetan-3-yl-1H-pyrazol-4-yl)-[1,2,4]oxadiazol-3-yl]-propyl}-pyridin-2-yl)-pyrazin-2-ylamine] |
| 52 nM | 850 nM | C[C@@](c1ccc(-c2ccc(N)nc2)nc1)(c1noc(-c2cnn(C(CO)CO)c2)n1)C1CC1 [Example 114, 2-(4-{3-[(R)-1-(6′-Amino-[2,3′]bipyridinyl-5-yl)-1-cyclopropyl-ethyl]-[1,2,4]oxadiazol-5-yl}-pyrazol-1-yl)-propane-1,3-diol] |
| 24 nM | 110 nM | C[C@@](c1ccc(-c2ccc(N)nc2)nc1)(c1noc(-c2cnn(C3COC3)c2)n1)C1CC1 [Example 115, 5-{(R)-1-Cyclopropyl-1-[5-(1-oxetan-3-yl-1H-pyrazol-4-yl)-[1,2,4]oxadiazol-3-yl]-ethyl}-[2,3′]bipyridinyl-6′-ylamine] |
| 360 nM | 2000 nM | C[C@](c1ccc(-c2ccc(N)nc2)nc1)(c1noc(-c2cnn(C3COC3)c2)n1)C1CC1 [Example 116, 5-{(S)-1-Cyclopropyl-1-[5-(1-oxetan-3-yl-1H-pyrazol-4-yl)-[1,2,4]oxadiazol-3-yl]-ethyl}-[2,3′]bipyridinyl-6′-ylamine] |
| 8.7 nM | 86 nM | C[C@@](c1ccc(-c2cnc(N)nc2)nc1)(c1noc(-c2cn[nH]c2)n1)C1CC1 [Example 117, 5-(5-{(R)-1-Cyclopropyl-1-[5-(1H-pyrazol-4-yl)-[1,2,4]oxadiazol-3-yl]-ethyl}-pyridin-2-yl)-pyrimidin-2-ylamine] |
| 47 nM | 210 nM | Cn1cc(-c2nc(C(C)(c3ccc(-c4ccc(N)nc4)nc3)C3CC3)no2)cn1 (stereo not shown) [Example 118, 5-{1-Cyclopropyl-1-[5-(1-methyl-1H-pyrazol-4-yl)-[1,2,4]oxadiazol-3-yl]-ethyl}-[2,3′]bipyridinyl-6′-ylamine] |
| 3.4 nM | 2200 nM | CC(C)[C@](C)(c1ccc(-c2cnc(N)[nH]c2=O)nc1)c1noc(-c2cnn(CC(C)(C)O)c2)n1 [Example 119, 2-Amino-5-[5-((R)-1-{5-[1-(2-hydroxy-2-methyl-propyl)-1H-pyrazol-4-yl]-[1,2,4]oxadiazol-3-yl}-1,2-dimethyl-propyl)-pyridin-2-yl]-3H-pyrimidin-4-one] |
| 42 nM | 300 nM | CN(C)CCn1cc(-c2nc(C(C)(c3ccc(-c4ccc(N)nc4)nc3)C3CC3)no2)cn1 (stereo not shown) [Example 120, 5-(1-Cyclopropyl-1-{5-[1-(2-dimethylamino-ethyl)-1H-pyrazol-4-yl]-[1,2,4]oxadiazol-3-yl}-ethyl)-[2,3′]bipyridinyl-6′-ylamine] |
| 67 nM | 220 nM | CO[C@H]1CCN(C(=O)Cn2cc(-c3nc([C@@](C)(c4ccc(-c5cnc(N)nc5)nc4)C4CC4)no3)cn2)C1 [Example 121, 2-[4-(3-{(R)-1-[6-(2-Amino-pyrimidin-5-yl)-pyridin-3-yl]-1-cyclopropyl-ethyl}-[1,2,4]oxadiazol-5-yl)-pyrazol-1-yl]-1-((S)-3-methoxy-pyrrolidin-1-yl)-ethanone] |
| 34 nM | 450 nM | CN(C)C(=O)Cn1cc(-c2nc([C@@](C)(c3ccc(-c4cnc(N)cn4)nc3)C3CC3)no2)cn1 [Example 122, 2-[4-(3-{(R)-1-[6-(5-Amino-pyrazin-2-yl)-pyridin-3-yl]-1-cyclopropyl-ethyl}-[1,2,4]oxadiazol-5-yl)-pyrazol-1-yl]-N,N-dimethyl-acetamide] |
| 300 nM | 3300 nM | CN(C)C(=O)Cn1cc(-c2nc([C@](C)(c3ccc(-c4cnc(N)cn4)nc3)C3CC3)no2)cn1 [Example 123, 2-[4-(3-{(S)-1-[6-(5-Amino-pyrazin-2-yl)-pyridin-3-yl]-1-cyclopropyl-ethyl}-[1,2,4]oxadiazol-5-yl)-pyrazol-1-yl]-N,N-dimethyl-acetamide] |
| 18 nM | 60 nM | CN(C)CCn1cc(-c2nc([C@@](C)(c3ccc(-c4cnc(N)cn4)nc3)C3CC3)no2)cn1 [Example 124, 5-[5-((R)-1-Cyclopropyl-1-{5-[1-(2-dimethylamino-ethyl)-1H-pyrazol-4-yl]-[1,2,4]oxadiazol-3-yl}-ethyl)-pyridin-2-yl]-pyrazin-2-ylamine] |
| 120 nM | 370 nM | CN(C)CCn1cc(-c2nc([C@](C)(c3ccc(-c4cnc(N)cn4)nc3)C3CC3)no2)cn1 [Example 125, 5-[5-((S)-1-Cyclopropyl-1-{5-[1-(2-dimethylamino-ethyl)-1H-pyrazol-4-yl]-[1,2,4]oxadiazol-3-yl}-ethyl)-pyridin-2-yl]-pyrazin-2-ylamine] |
| 8.8 nM | 25 nM | COCCn1cc(-c2nc([C@@](C)(c3ccc(-c4cnc(N)cn4)nc3)C3CC3)no2)cn1 [Example 126, 5-[5-((R)-1-Cyclopropyl-1-{5-[1-(2-methoxy-ethyl)-1H-pyrazol-4-yl]-[1,2,4]oxadiazol-3-yl}-ethyl)-pyridin-2-yl]-pyrazin-2-ylamine] |
| 220 nM | 410 nM | COCCn1cc(-c2nc([C@](C)(c3ccc(-c4cnc(N)cn4)nc3)C3CC3)no2)cn1 [Example 127, 5-[5-((S)-1-Cyclopropyl-1-{5-[1-(2-methoxy-ethyl)-1H-pyrazol-4-yl]-[1,2,4]oxadiazol-3-yl}-ethyl)-pyridin-2-yl]-pyrazin-2-ylamine] |
| 10 nM | 270 nM | CC(C)[C@](C)(c1ccc(-c2cnc(N)nc2)nc1)c1noc(-c2cnn(CCS(C)(=O)=O)c2)n1 [Example 128, 5-[5-((R)-1-{5-[1-(2-Methanesulfonyl-ethyl)-1H-pyrazol-4-yl]-[1,2,4]oxadiazol-3-yl}-1,2-dimethyl-propyl)-pyridin-2-yl]-pyrimidin-2-ylamine] |
| 8.1 nM | 19 nM | CC(C)[C@](C)(c1ccc(-c2cnc(N)nc2)nc1)c1noc(-c2cnn(CC#N)c2)n1 [Example 129, [4-(3-{(R)-1-[6-(2-Amino-pyrimidin-5-yl)-pyridin-3-yl]-1,2-dimethyl-propyl}-[1,2,4]oxadiazol-5-yl)-pyrazol-1-yl]-acetonitrile] |
| 15 nM | 94 nM | CNc1cnc(-c2ccc(C(C)(c3noc(-c4cnn(CC(C)(C)O)c4)n3)C3CC3)cn2)cn1 (stereo not shown) [Example 130, 1-[4-(3-{1-Cyclopropyl-1-[6-(5-methylamino-pyrazin-2-yl)-pyridin-3-yl]-ethyl}-[1,2,4]oxadiazol-5-yl)-pyrazol-1-yl]-2-methyl-propan-2-ol] |
| 5.6 nM | 39 nM | CC(C)[C@](C)(c1ccc(-c2ccc(N)nc2)nc1)c1noc(-c2cnn(C3COC3)c2)n1 [Example 131, 5-{(R)-1,2-Dimethyl-1-[5-(1-oxetan-3-yl-1H-pyrazol-4-yl)-[1,2,4]oxadiazol-3-yl]-propyl}-[2,3′]bipyridinyl-6′-ylamine] |
| 12 nM | 130 nM | CC(C)[C@](C)(c1ccc(-c2ccc(N)nc2)nc1)c1noc(-c2cnn(CC(=O)N(C)C)c2)n1 [Example 132, 2-(4-{3-[(R)-1-(6′-Amino-[2,3′]bipyridinyl-5-yl)-1,2-dimethyl-propyl]-[1,2,4]oxadiazol-5-yl}-pyrazol-1-yl)-N,N-dimethyl-acetamide] |
| 7.5 nM | 30 nM | COCCn1cc(-c2nc([C@@](C)(c3ccc(-c4ccc(N)nc4)nc3)C(C)C)no2)cn1 [Example 133, 5-((R)-1-{5-[1-(2-Methoxy-ethyl)-1H-pyrazol-4-yl]-[1,2,4]oxadiazol-3-yl}-1,2-dimethyl-propyl)-[2,3′]bipyridinyl-6′-ylamine] |
| 7.2 nM | 310 nM | C[C@@](c1ccc(-c2cnc(N)nc2)nc1)(c1noc(-c2cnc(N3CCNCC3)cn2)n1)C1CC1 [Example 134, 5-(5-{(R)-1-Cyclopropyl-1-[5-(3,4,5,6-tetrahydro-2H-[1,2′]bipyrazinyl-5′-yl)-[1,2,4]oxadiazol-3-yl]-ethyl}-pyridin-2-yl)-pyrimidin-2-ylamine] |
